In paper PMC7915275, “Mycobacterial and Human Ferrous Nitrobindins: Spectroscopic and Reactivity Properties” (International Journal of Molecular Sciences, 2021):
Converted amounts (≈) assume the structure as drawn. Like-named read-outs stand apart in the source and are kept apart here.

Columns and labels:
Hs-Nb(II) [1] = biological target: T1, Hs-Nb(II) (Homo sapiens, UniProt Q8WY91); test: O2 dissociation from Hs-Nb(II)-O2 by oxygen pulse experiments; format: binding; settings: Hs-Nb(II)-O2, pH 7.0, 25.0 °C
T1 construct: Homo sapiens Nb (Hs-Nb) is the C-terminal domain of the THAP4 protein; made in house
T1 sequence (Q8WY91 415-577 limits assumed): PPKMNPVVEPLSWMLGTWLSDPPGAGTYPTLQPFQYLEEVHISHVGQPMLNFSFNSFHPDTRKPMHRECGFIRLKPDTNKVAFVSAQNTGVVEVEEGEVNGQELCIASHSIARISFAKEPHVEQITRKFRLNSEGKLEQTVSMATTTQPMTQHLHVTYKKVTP
Protocol: (§1) Kinetics of O2 dissociation from the transient Mt-Nb(II)-O2, At-Nb(II)-O2 and Hs-Nb(II)-O2 species were investigated spectrophotometrically at pH 7.0 (1.0 × 10^−1 M phosphate buffer) and 25.0 °C by oxygen pulse experiments. This type of reaction proceeds according to Scheme 6.
(§2) The deoxygenation of Mt-Nb(II)-O2 and Hs-Nb(II)-O2 process was followed at 431 nm. Kinetics of Mt-Nb(II)-O2 and Hs-Nb(II)-O2 deoxygenation were analyzed according to Equation (1).
(§3) Rapid-mixing experiments were carried out employing an SX18.MV stopped-flow apparatus (Applied Photophysics, Salisbury, UK) equipped with a diode array for spectra acquisition over a 1 ms time range; the light path of the observation chamber was 10 mm.

[2] = cited from earlier work
At-Nb(II) [3] = biological target: T2, At-Nb(II) (Arabidopsis thaliana, UniProt O64527); test: O2 dissociation from At-Nb(II)-O2 by oxygen pulse experiments; format: binding; settings: At-Nb(II)-O2, pH 7.0, 25.0 °C
T2 construct: made in house
Protocol: as §1, §2, §3

Mt-Nb(II) [4] = biological target: T3, Mt-Nb(II) (Mycobacterium tuberculosis, UniProt P9WFG7); test: O2 dissociation from Mt-Nb(II)-O2 by oxygen pulse experiments; format: binding; set-up: made in house; settings: Mt-Nb(II)-O2, pH 7.0, 25.0 °C
Protocol: as §1, §2, §3

Pc-Mb(II) [5] = system: Pc-Mb(II); set-up: method as in PMID 5800433; settings: pH 7.0, 20.0 °C, temperature-jump method; cited from earlier work
Mt-Nb(II) [6] = biological target: T3, Mt-Nb(II); test: CO rebinding to Mt-Nb(II) after nanosecond laser flash photolysis
Description: CO rebinding kinetics to Mt-Nb(II) and Hs-Nb(II) at pH 7.4 (5.0 × 10^−2 M phosphate buffer) was obtained using the second harmonic (532 nm) of a Q-switched Nd:YAG laser (Surelite I-10, Continuum, Santa Clara, CA, USA) and the cw output of a 150 W Xe arc lamp was used as probe beam to monitor absorbance changes at 436 nm.
The CO adducts were obtained by equilibrating solutions in either 0.2 CO atm or 1.0 CO atm. The oxidation state, the molar fraction of ferrous carbonylated Nbs, and the Nb concentration were determined spectrophotometrically. Kinetics were analyzed according to Scheme 3.
According to Scheme 3, there are two types of processes, namely the formation of the A state directly from state B, which is much faster and independent on the ligand concentration (geminate recombination), whose extent φgem depends on the relative rates kBA(L) and kBC(L) according to the following relationship (3) φgem= kBA(L)/(kBA(L)+kBC(L)) and the observed rate rgem corresponds to (4) rgem= kBA(L)+ kBC(L) the formation of state A from state C (through the transient formation of state B), which depends on the ligand concentration (bimolecular recombination) and it is characterized by the second-order rate rbim corresponding to (5) rbim= kCB(L) × φgem

Rp-NP4(II) = biological target: Rp-NP4(II); set-up: method as in PMID 22594621; settings: pH 7.5, 20.0 °C, cited from earlier work
Mt-Nb(II) [7] = biological target: T3, Mt-Nb(II); test: CO binding to and dissociation from Mt-Nb(II) by rapid-mixing stopped-flow (incl. CO displacement by NO); set-up: made in house
Hs-Nb(II) [8] = biological target: T1, Hs-Nb(II); test: CO rebinding to Hs-Nb(II) after nanosecond laser flash photolysis; format: binding
Protocol: Kinetics were analyzed according to Scheme 3.

At-Nb(II) [9] = biological target: T2, At-Nb(II); set-up: method as in PMID 19938152; settings: pH 7.0, 20.0 °C, cited from earlier work
Hs-Nb(II) [10] = biological target: T1, Hs-Nb(II); test: CO binding to and dissociation from Hs-Nb(II) by rapid-mixing stopped-flow (incl. CO displacement by NO); settings: for kobs(CO): λ = 421 nm
Protocol: Progress kinetic curves at selected wavelengths were analyzed according to Equation (1): (1) ODobs=OD0±∑i=1i−nΔODie^(−kit) where ODobs is the observed optical density at a selected wavelength and at a given time interval, OD0 is the optical density at t = 0, n is the number of exponentials, ΔODi is the optical density change associated to the exponential i, ki is the pseudo-first-order rate constant of the exponential i (i.e., kobs(CO)) and t is the time. Since data collection occurs on a logarithmic scale, experimental points in the first second represent the absolute majority (about 70 out of 100 points) of total collected ones.
Values of the second-order rate constant for Mt-Nb(II)-CO and Hs-Nb(II)-CO formation (i.e., kon(CO)) and of the first-order rate constant for CO dissociation from Mt-Nb(II)-CO and Hs-Nb(II)-CO (i.e., koff(CO)) were obtained from the dependence of the pseudo-first-order rate constant for Mt-Nb(II) and Hs-Nb(II) carbonylation (i.e., kobs(CO)) on the ligand concentration (i.e., [CO]) according to Equation (2):kobs(CO) = kon(CO) × [CO] + koff(CO)(2)
The values of the first-order rate constant for CO dissociation from Mt-Nb(II)-CO and Hs-Nb(II)-CO (i.e., for CO replacement by NO; koff(CO)) were also determined by mixing the Mt-Nb(II)-CO and Hs-Nb(II)-CO (final concentration, 2.0 × 10^−6 M to 5.0 × 10^−6 M; [CO] = 1.0 × 10^−4 M) solutions with the NO saturated solution (final concentration, […]), under anaerobic conditions (i.e., in the presence of 2.0 × 10^−3 M sodium dithionite), at pH 7.0 (1.0 × 10^−1 M phosphate buffer), and 25.0 °C; no gaseous phase was present. Kinetics of CO dissociation from Mt-Nb(II)-CO and Hs-Nb(II)-CO was recorded at 421 nm.
The conversion of Mt-Nb(II)-CO and Hs-Nb(II)-CO to Mt-Nb(II)-NO and Hs-Nb(II)-NO, respectively, was analyzed in the framework of Scheme 2 [75]:
The values of koff(CO) were determined from data analysis, according to Equation (1). The over 100-fold excess of NO over CO guarantees that the reaction proceeds rightward because kon(NO) × [NO] >> kon(CO) × [CO] [75].
as §3, with “UK),” for “UK)”, “range (the” for “range; the”, “mm) and an SFM-20/MOS-200 rapid-mixing stopped-flow apparatus (BioLogic Science Instruments, Claix, France) (the light path of the observation chamber was 10 mm).” for “mm.”

Pc-Mb(II) [11] = system: Pc-Mb(II); set-up: method as in PMID 2303446; settings: pH 7.0, 20.0 °C, cited from earlier work
Pc-Mb(II) [12] = test: CO binding kinetics to Pc-Mb(II) (literature); set-up: species or system Physeter catodon
Rp-NP7(II) = biological target: Rp-NP7(II); set-up: method as in PMID 22594621; settings: pH 7.5, 20.0 °C, cited from earlier work
Ec-Mb(II) [13] = test: CO binding kinetics to Ec-Mb(II) (literature); set-up: species or system Equus caballus
Ec-Mb(II) [14] = settings: cited from earlier work
[15] = faster phase, Eyring plots 10.0-40.0 °C
[16] = slower phase, Eyring plots 10.0-40.0 °C

T2 sequence (O64527 whole entry): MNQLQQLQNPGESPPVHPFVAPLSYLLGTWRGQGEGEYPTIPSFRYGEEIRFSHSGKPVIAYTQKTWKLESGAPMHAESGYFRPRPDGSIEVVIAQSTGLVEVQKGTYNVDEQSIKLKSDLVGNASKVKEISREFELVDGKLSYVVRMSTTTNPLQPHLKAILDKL
T3 sequence (P9WFG7 whole entry): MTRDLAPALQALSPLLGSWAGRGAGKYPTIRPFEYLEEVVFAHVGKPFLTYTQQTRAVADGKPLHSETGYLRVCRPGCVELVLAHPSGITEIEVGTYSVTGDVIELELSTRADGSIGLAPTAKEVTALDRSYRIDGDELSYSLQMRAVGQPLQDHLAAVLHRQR

In the case of `O=O` [O2], the “koff(O2)” value (Hs-Nb(II) [1]) is listed as 19 s⁻¹, the “solubility in the aqueous buffered solution” value ([2]; p = 760 mm Hg, T = 20.0 °C, phosphate buffer pH 7.0, reference not given) is listed as 1250 µM (≈ 40 µg/mL) and the “koff(O2)” value (At-Nb(II) [3]) is listed as 6.8 s⁻¹. For the same compound, the “koff(O2)” value (Mt-Nb(II) [4]) was 11 s⁻¹ and the “koff(O2)” value (Pc-Mb(II) [5]) was 10 s⁻¹.
In the case of `[C-]#[O+]` [CO], the “ΔH1^‡ bimolecular CO binding” value (Mt-Nb(II) [6]; [15]) is reported as 7.65 ± 0.48 kcal/mol, the “ΔG1^‡ bimolecular CO binding” value (Mt-Nb(II) [6]; faster phase, at 20.0 °C) is reported as 10 ± 0.72 kcal/mol and the “φgem (CO geminate rebinding)” value (Mt-Nb(II) [6]; laser photolysis) is reported as ≤ 0.05. For the same compound, the “ΔH2^‡ bimolecular CO binding” value (Mt-Nb(II) [6]; [16]) was 8.6 ± 0.96 kcal/mol, the “ΔG2^‡ bimolecular CO binding” value (Mt-Nb(II) [6]; slower phase, at 20.0 °C) was 10.5 ± 0.96 kcal/mol and the Kd (Rp-NP4(II); read-out: K (=koff/kon) for CO, first value (77% phase)) was 0.22 nM. For the same compound, the Kd (Rp-NP4(II); read-out: K (=koff/kon) for CO, second value (23% phase)) was 0.22 nM, the “koff(CO), 23% phase” value (Rp-NP4(II)) was 0.0041 s⁻¹ and the “koff(CO), 77% phase” value (Rp-NP4(II)) was 0.0097 s⁻¹. The “kon(CO), 23% phase” value (Rp-NP4(II)) was 1.9e+07 M⁻¹ s⁻¹, the “kon(CO), 77% phase” value (Rp-NP4(II)) was 4.5e+07 M⁻¹ s⁻¹ and the Kd (Mt-Nb(II) [7]; Mt-Nb(II), pH 7.0, 25.0 °C, read-out: K (=koff/kon) for CO) was 63000 nM. The “kon(CO)” value (Mt-Nb(II) [7]; Mt-Nb(II), rapid-mixing, pH 7.0, 25.0 °C) was 55000 M⁻¹ s⁻¹, the “koff(CO)” value (Mt-Nb(II) [7]; Mt-Nb(II)-CO, pH 7.0, 25.0 °C) was 3.5 ± 0.5 s⁻¹ and the “activation free energy ΔG^‡ of CO binding” value (from here on “activation free energy ΔG^‡”) (Mt-Nb(II) [7]; Mt-Nb, from CO binding rate constant) was 10.8 kcal/mol. The “rgem (CO geminate recombination rate)” value (Hs-Nb(II) [8]; 25 °C) was 9e+07 s⁻¹, the “kBA(CO) ≈ rgem × φgem” value (Hs-Nb(II) [8]; Equation (3)) was “≈ 4.5 × 10^6 s^−1” and the “kBC(CO) ≈ rgem - kBA(CO)” value (Hs-Nb(II) [8]; escape to solvent) was “≈ 8.5 × 10^7 s^−1”. For the same compound, the “ΔH1^‡ bimolecular CO binding” value (Hs-Nb(II) [8]; [15]) was 9.08 ± 0.96 kcal/mol, the “ΔG1^‡ bimolecular CO binding” value (Hs-Nb(II) [8]; faster phase, at 20.0 °C) was 8.37 ± 2.87 kcal/mol and the “geminate CO recombination, share of total amplitude of the rebinding process” value (Hs-Nb(II) [8]; laser photolysis) was ~ 5%. The “φgem (CO geminate rebinding)” value (Hs-Nb(II) [8]; laser photolysis) was ≤ 0.05, the “ΔH2^‡ bimolecular CO binding” value (Hs-Nb(II) [8]; [16]) was 9.08 ± 0.96 kcal/mol and the “ΔG2^‡ bimolecular CO binding” value (Hs-Nb(II) [8]; slower phase, at 20.0 °C) was 10 ± 1.4 kcal/mol. The Kd (At-Nb(II) [9]; read-out: K (=koff/kon) for CO) was 220 nM, the “koff(CO)” value (At-Nb(II) [9]) was 0.05 s⁻¹ and the “kon(CO)” value (At-Nb(II) [9]) was 230000 M⁻¹ s⁻¹. The “kobs(CO)” value (Hs-Nb(II) [10]; Hs-Nb(II), [CO] = 2.1 × 10^−4 M, pH 7.0, 25.0 °C) was “(2.4 ± 0.3) × 10^1 s^−1”, the “kobs(CO)” value (Hs-Nb(II) [10]; Hs-Nb(II), [CO] = 4.5 × 10^−5 M, pH 7.0, 25.0 °C) was 8.3 ± 0.9 s⁻¹ and the “kobs(CO)” value (Hs-Nb(II) [10]; Hs-Nb(II), [CO] = 7.0 × 10^−5 M, pH 7.0, 25.0 °C) was “(1.1 ± 0.1) × 10^1 s^−1”. The Kd (Hs-Nb(II) [10]; Hs-Nb(II), pH 7.0, 25.0 °C, read-out: K (=koff/kon) for CO) was 38000 nM, the “kon(CO)” value (Hs-Nb(II) [10]; Hs-Nb(II), rapid-mixing, pH 7.0, 25.0 °C) was 100000 M⁻¹ s⁻¹ and the “koff(CO)” value (Hs-Nb(II) [10]; Hs-Nb(II)-CO, pH 7.0, 25.0 °C) was 3.8 ± 0.5 s⁻¹. The “activation free energy ΔG^‡” value (Hs-Nb(II) [10]; Hs-Nb, from CO binding rate constant) was 10.4 kcal/mol, the “solubility in the aqueous buffered solution” value ([2]; p = 760.0 mm Hg, 20.0 °C, phosphate buffer pH 7.0) was 1030 µM (≈ 28.9 µg/mL) and the “kon(CO)” value (Pc-Mb(II) [11]; rapid-mixing and laser photolysis) was 510000 M⁻¹ s⁻¹. The Kd (Pc-Mb(II) [11]; read-out: K (=koff/kon) for CO) was 37 nM, the “koff(CO)” value (Pc-Mb(II) [11]) was 0.019 s⁻¹ and the “activation free energy ΔG^‡” value (Pc-Mb(II) [12]) was 9.49 kcal/mol. For the same compound, the Kd (Rp-NP7(II); read-out: K (=koff/kon) for CO, first value (30% phase)) was 0.088 nM, the Kd (Rp-NP7(II); read-out: K (=koff/kon) for CO, second value (70% phase) (converted)) was 0.015 nM and the “koff(CO), 30% phase” value (Rp-NP7(II)) was 0.0044 s⁻¹. The “koff(CO), 70% phase” value (Rp-NP7(II)) was 0.00076 s⁻¹, the “kon(CO)” value (Rp-NP7(II)) was 5e+07 M⁻¹ s⁻¹ and the “activation free energy ΔG^‡” value (Ec-Mb(II) [13]) was 9.37 kcal/mol. For the same compound, the “koff(CO)” value (Ec-Mb(II) [14]; footnote not given) was 0.035 s⁻¹, the “kon(CO)” value (Ec-Mb(II) [14]; pH 7.0, 20.0 °C) was 500000 M⁻¹ s⁻¹ and the “kon(CO)” value (Ec-Mb(II) [14]; pH 7.0, 25.0 °C) was 610000 M⁻¹ s⁻¹. For the same compound, the Kd (Ec-Mb(II) [14]; read-out: K (=koff/kon) for CO) was 57 nM.
